Measured values: patent US12187723B2 (BRISTOL-MYERS SQUIBB COMPANY, priority 2019, dated 2025)

Columns and labels:
human TLR7 = biological target: T1, human TLR7 (Homo sapiens, UniProt Q9NYK1); assay: TLR7 inhibition reporter assay (HEK-Blue SEAP); assay type: cell-based; conditions: HEK-Blue cells overexpressing human TLR7, gardiquimod 7.5 μM, 22 hour incubation
T1 construct: host or cells: HEK-Blue cells
T1 sequence (Q9NYK1 27-1049): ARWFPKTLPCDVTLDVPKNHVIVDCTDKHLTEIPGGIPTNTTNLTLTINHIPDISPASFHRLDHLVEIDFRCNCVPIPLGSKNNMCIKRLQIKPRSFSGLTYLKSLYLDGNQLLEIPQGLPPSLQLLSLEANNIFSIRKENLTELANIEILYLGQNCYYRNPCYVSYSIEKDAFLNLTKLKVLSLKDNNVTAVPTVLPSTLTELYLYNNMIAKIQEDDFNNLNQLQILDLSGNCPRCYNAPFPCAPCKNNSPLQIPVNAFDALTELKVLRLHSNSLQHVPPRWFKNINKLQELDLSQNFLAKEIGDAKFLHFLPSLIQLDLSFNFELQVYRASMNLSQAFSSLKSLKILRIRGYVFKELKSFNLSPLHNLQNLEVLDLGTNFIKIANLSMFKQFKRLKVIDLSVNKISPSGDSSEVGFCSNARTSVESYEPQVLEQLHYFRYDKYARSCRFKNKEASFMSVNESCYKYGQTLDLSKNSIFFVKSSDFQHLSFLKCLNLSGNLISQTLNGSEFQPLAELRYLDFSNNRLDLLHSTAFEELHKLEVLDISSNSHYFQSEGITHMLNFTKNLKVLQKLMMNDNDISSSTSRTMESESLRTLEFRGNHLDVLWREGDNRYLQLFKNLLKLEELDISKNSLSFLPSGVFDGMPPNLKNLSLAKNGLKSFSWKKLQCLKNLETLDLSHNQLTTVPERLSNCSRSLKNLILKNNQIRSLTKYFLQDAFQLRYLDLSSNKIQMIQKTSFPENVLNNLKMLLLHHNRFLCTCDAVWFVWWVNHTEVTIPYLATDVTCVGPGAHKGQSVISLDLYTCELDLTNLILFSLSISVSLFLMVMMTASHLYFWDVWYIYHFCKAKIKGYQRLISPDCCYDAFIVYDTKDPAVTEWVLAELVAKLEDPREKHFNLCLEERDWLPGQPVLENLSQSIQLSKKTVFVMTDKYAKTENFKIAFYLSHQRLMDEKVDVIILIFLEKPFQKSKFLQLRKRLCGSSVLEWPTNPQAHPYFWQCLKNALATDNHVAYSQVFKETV
How it was run: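 Cells (15000/well for TLR7, 20,000 for TLR8) were treated with compounds over 0.05 nM-50 μM final. After 22 h at 37° C, 5% CO2, SEAP was measured with HEK-Blue Detection reagent; percent inhibition was taken as reduction of agonist-plus-DMSO signal relative to a known inhibitor.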

human TLR8 = biological target: T2, human TLR8 (Homo sapiens, UniProt Q9NR97); assay: TLR8 inhibition reporter assay (HEK-Blue SEAP); assay type: cell-based; conditions: HEK-Blue cells overexpressing human TLR8, R848 15.9 μM, 22 hour incubation
T2 construct: host or cells: HEK-Blue cells
T2 sequence (Q9NR97 27-1041): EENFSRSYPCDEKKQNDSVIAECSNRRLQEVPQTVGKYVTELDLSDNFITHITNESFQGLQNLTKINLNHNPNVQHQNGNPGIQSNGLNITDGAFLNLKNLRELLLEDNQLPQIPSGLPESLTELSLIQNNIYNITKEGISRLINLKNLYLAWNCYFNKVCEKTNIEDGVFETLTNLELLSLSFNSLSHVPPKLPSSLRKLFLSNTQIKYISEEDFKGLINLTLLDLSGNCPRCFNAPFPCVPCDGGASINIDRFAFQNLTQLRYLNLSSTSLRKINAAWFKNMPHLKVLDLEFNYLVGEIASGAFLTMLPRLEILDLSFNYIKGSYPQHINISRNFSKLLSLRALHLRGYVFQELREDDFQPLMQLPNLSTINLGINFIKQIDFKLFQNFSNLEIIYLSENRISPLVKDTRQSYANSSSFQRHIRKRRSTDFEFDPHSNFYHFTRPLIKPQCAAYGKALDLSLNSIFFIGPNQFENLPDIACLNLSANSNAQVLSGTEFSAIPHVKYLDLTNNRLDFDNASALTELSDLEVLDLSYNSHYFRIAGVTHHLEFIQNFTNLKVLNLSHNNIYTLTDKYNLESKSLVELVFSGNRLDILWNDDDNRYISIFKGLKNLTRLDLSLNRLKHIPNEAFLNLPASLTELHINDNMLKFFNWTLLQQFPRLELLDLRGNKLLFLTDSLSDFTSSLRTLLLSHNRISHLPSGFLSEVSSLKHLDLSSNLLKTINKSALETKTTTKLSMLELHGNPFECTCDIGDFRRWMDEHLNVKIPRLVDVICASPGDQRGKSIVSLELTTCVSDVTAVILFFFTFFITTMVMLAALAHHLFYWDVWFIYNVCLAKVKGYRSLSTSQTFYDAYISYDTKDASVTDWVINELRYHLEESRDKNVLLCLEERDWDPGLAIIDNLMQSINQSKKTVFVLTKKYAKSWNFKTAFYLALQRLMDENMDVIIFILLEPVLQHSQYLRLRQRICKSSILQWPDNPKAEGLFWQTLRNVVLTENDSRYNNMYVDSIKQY
How it was run: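 Human TLR7/8/9 HEK-Blue reporter lines; dose range 0.05 nM–50 μM; 30 min RT preincubation; stimulus gardiquimod 7.5 μM / R848 15.9 μM / ODN2006 5 nM respectively; 22 h, 37 °C; SEAP detected colorimetrically.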

Structure (SMILES)	IC50 (human TLR7)	IC50 (human TLR8)
CCC(CC)CN[C@H]1CC[C@@H](n2c(=O)[nH]c3cc(-c4cn5ncnc5c(C)c4C)c(C(C)C)cc32)CC1 [Example 198]	4.92 nM	0.15 nM
COc1cc(-c2cc3[nH]c(=O)n([C@H]4CC[C@@H](NCC(C)(C)C)CC4)c3cc2C(C)C)cn2ncnc12 [Example 197, 6-isopropyl-5-(8-methoxy-[1,2,4]triazolo[1,5-a]pyridin-6-yl)-1-((1s,4s)-4-(neopentylamino)cyclohexyl)-1,3-dihydro-2H-benzo[d]imidazol-2-one]	0.8 nM	0.04 nM
COc1cc(-c2cc3[nH]c(=O)n([C@H]4CC[C@H](NC5CCN(C(C)C)CC5)CC4)c3cc2C(C)C)cn2ncnc12 [Example 207, 6-isopropyl-1-((1r,4r)-4-((1-isopropylpiperidin-4-yl)amino)cyclohexyl)-5-(8-methoxy-[1,2,4]triazolo[1,5-a]pyridin-6-yl)-1,3-dihydro-2H-benzo[d]imidazol-2-one]	23.9 nM	4.15 nM
COc1cc(-c2cc3[nH]c(=O)n([C@@H]4CCCN(CCC(C)(C)C)C4)c3cc2C(C)C)cn2ncnc12 [Example 210, (R)-1-(1-(3,3-dimethylbutyl)piperidin-3-yl)-6-isopropyl-5-(8-methoxy-[1,2,4]triazolo[1,5-a]pyridin-6-yl)-1,3-dihydro-2H-benzo[d]imidazol-2-one]	2.86 nM	3.3 nM
COc1cc(-c2cc3[nH]c(=O)n(C4CCC(N5CC(O)(C(F)(F)F)C5)CC4)c3cc2C(C)C)cn2ncnc12 (single isomer, unassigned) [Example 241, 1-(4-(3-hydroxy-3-(trifluoromethyl)azetidin-1-yl)cyclohexyl)-6-isopropyl-5-(8-methoxy-[1,2,4]triazolo[1,5-a]pyridin-6-yl)-1,3-dihydro-2H-benzo[d]imidazol-2-one]	3.01 nM	0.49 nM
COCCN1CCC(n2c(=O)[nH]c3cc(-c4cc(OC)c5ncnn5c4)c(C(C)C)cc32)CC1 [Example 223, 6-isopropyl-5-(8-methoxy-[1,2,4]triazolo[1,5-a]pyridin-6-yl)-1-(1-(2-methoxyethyl)piperidin-4-yl)-1,3-dihydro-2H-benzo[d]imidazol-2-one]	16.9 nM	9.01 nM
CCN1CCC[C@H](n2c(=O)[nH]c3cc(-c4cc(C)c5ncnn5c4)c(C)cc32)C1 [Example 12, (S)-1-(1-ethylpiperidin-3-yl)-6-methyl-5-(8-methyl-[1,2,4]triazolo[1,5-a]pyridin-6-yl)-1,3-dihydro-2H-benzo[d]imidazol-2-one]	144 nM	92.5 nM
COCCN1CCC[C@@H](n2c(=O)[nH]c3cc(-c4cc(OC)c5ncnn5c4)c(C(C)C)cc32)C1 (single isomer, unassigned) [Example 225]	7.96 nM	3.37 nM
COc1cc(-c2cc3[nH]c(=O)n([C@H]4CC[C@H](N(CC(C)C)CC(C)C)CC4)c3cc2C(C)C)cn2ncnc12 [Example 205, 1-((1r,4r)-4-(diisobutylamino)cyclohexyl)-6-isopropyl-5-(8-methoxy-[1,2,4]triazolo[1,5-a]pyridin-6-yl)-1,3-dihydro-2H-benzo[d]imidazol-2-one]	4.76 nM	1.63 nM
COc1cc(-c2cc3[nH]c(=O)n([C@H]4CC[C@H](NC5COC5)CC4)c3cc2C(C)C)cn2ncnc12 [Example 201, 6-isopropyl-5-(8-methoxy-[1,2,4]triazolo[1,5-a]pyridin-6-yl)-1-((1r,4r)-4-(oxetan-3-ylamino)cyclohexyl)-1,3-dihydro-2H-benzo[d]imidazol-2-one]	2.07 nM	1.54 nM
Cc1c(-c2cc3[nH]c(=O)n([C@H]4CC[C@@H](NC5COC5)CC4)c3cc2C(C)C)cn2ncnc2c1C [Example 188, 5-(7,8-dimethyl-[1,2,4]triazolo[1,5-a]pyridin-6-yl)-6-isopropyl-1-((1s,4s)-4-(oxetan-3-ylamino)cyclohexyl)-1,3-dihydro-2H-benzo[d]imidazol-2-one]	7.14 nM	0.95 nM
Cc1c(-c2cc3[nH]c(=O)n([C@H]4CC[C@@H](N(C)C)CC4)c3cc2C(C)C)cn2ncnc2c1C [Example 185, 5-(7,8-dimethyl-[1,2,4]triazolo[1,5-a]pyridin-6-yl)-1-((1s,4s)-4-(dimethylamino)cyclohexyl)-6-isopropyl-1,3-dihydro-2H-benzo[d]imidazol-2-one]	3.39 nM	0.36 nM
Cc1cc2c(cc1-c1cc(C)c3ncnn3c1)[nH]c(=O)n2[C@H]1CCCN(C2COC2)C1 [Example 14, (S)-6-methyl-5-(8-methyl-[1,2,4]triazolo[1,5-a]pyridin-6-yl)-1-(1-(oxetan-3-yl)piperidin-3-yl)-1,3-dihydro-2H-benzo[d]imidazol-2-one]	787 nM	155 nM
COCCN1CCC[C@@H](n2c(=O)[nH]c3cc(-c4cc(OC)c5ncnn5c4)c(C(C)C)cc32)C1 [Example 226, (R)-6-isopropyl-5-(8-methoxy-[1,2,4]triazolo[1,5-a]pyridin-6-yl)-1-(1-(2-methoxyethyl)piperidin-3-yl)-1,3-dihydro-2H-benzo[d]imidazol-2-one]	1.13 nM	4.15 nM
Cc1cc2c(cc1-c1cc(C)c3ncnn3c1)[nH]c(=O)n2[C@@H]1CCCN(C)C1 [Example 15, (R)-6-methyl-5-(8-methyl-[1,2,4]triazolo[1,5-a]pyridin-6-yl)-1-(1-methylpiperidin-3-yl)-1,3-dihydro-2H-benzo[d]imidazol-2-one]	24.6 nM	22.9 nM
COc1cc(-c2cc3[nH]c(=O)n(C4CCC(N5CCCC5)CC4)c3cc2C(C)C)cn2ncnc12 (stereo not shown) [Example 232, 6-isopropyl-5-(8-methoxy-[1,2,4]triazolo[1,5-a]pyridin-6-yl)-1-(4-(pyrrolidin-1-yl)cyclohexyl)-1,3-dihydro-2H-benzo[d]imidazol-2-one]	1.4 nM	0.44 nM
CCc1cc2c(cc1-c1cc(OC)c3ncnn3c1)[nH]c(=O)n2[C@@H]1CCCN(C2CCOC2)C1 (stereo partly drawn) [Example 212, 6-ethyl-5-(8-methoxy-[1,2,4]triazolo[1,5-a]pyridin-6-yl)-1-((3R)-1-(tetrahydrofuran-3-yl)piperidin-3-yl)-1,3-dihydro-2H-benzo[d]imidazol-2-one]	25.4 nM	4.4 nM
